Data from patent US12686665B2, “Bicyclic fused ring derivative or salt thereof and pharmaceutical composition comprising same” (YUHAN CORPORATION, priority 2021, dated 2026).
Structures can show the parent of a compound that is named as a salt.

biological target: T1, recombinant human Lysyl Oxidase-Like 2 (LOXL2) (Homo sapiens, UniProt Q9Y4K0); assay: Amplex Red HRP-coupled amine oxidase assay, recombinant human LOXL2; format: biochemical; details: 60 min incubation with enzyme at 37° C., putrescine substrate, read-out: Inhibitory activity (IC50, nM) human LOXL2
T1 construct: purchased R&D systems
T1 sequence (Q9Y4K0 26-774): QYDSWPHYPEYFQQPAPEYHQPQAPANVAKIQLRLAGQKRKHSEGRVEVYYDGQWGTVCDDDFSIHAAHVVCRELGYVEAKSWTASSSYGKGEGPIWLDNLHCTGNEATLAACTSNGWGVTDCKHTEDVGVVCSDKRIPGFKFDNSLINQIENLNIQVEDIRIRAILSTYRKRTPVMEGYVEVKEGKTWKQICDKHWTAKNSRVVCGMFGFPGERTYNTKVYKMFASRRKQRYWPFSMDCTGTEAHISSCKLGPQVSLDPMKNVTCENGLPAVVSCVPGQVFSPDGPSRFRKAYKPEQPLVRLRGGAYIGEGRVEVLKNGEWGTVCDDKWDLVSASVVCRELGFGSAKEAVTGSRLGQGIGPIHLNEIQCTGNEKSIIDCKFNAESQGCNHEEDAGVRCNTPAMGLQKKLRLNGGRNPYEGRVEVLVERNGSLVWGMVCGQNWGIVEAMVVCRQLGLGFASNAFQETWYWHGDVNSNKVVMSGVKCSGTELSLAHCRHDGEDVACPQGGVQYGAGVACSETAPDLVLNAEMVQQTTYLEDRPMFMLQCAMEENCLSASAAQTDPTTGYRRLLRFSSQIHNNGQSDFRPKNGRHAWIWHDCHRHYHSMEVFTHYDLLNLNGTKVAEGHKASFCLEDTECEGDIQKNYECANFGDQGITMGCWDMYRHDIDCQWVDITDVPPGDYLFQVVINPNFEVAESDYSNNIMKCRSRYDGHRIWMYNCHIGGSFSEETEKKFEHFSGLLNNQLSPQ
Procedure: The activities of the compounds according to the present invention against recombinant human Lysyl Oxidase-Like 2 (recombinant human LOXL2, R&D systems) were evaluated by measuring the levels of hydrogen peroxide in the HRP (horseradish peroxidase) coupled reactions, with the Amplex Red Hydrogen Peroxide Assay Kit (Molecular Probes, Invitrogen, USA). The tests were carried out at 37° C., and putrescine was used as a substrate. In the HRP coupling reaction, the oxidation of 10-acetyl-3,7-dihydroxyphenoxazine (Amplex Red reagent) by hydrogen peroxide generates a fluorescent product, i.e., resorufin. Briefly, the test compounds were dissolved in dimethyl sulfoxide (DMSO) at a concentration of 20 mM. Dose-response measurements were carried out by serial dilutions in DMSO to generate a six-point curve. The upper concentration was adjusted according to the potency of the compound, and then diluted with the reaction buffer to obtain a final DMSO concentration of 1%. Purified human LOXL2 in 50 mM sodium phosphate buffer (pH7.4) was added to each well of a 96 well black plate. The test compounds dissolved in DMSO were incubated with the human LOXL2 enzyme at 37° C. for 60 minutes. After the incubation for 60 minutes, a reaction mixture containing 400 μM Amplex Red reagent, 30 mM putrescine, and 2 U/mL HRP in 50 mM sodium phosphate buffer (pH 7.4) was added to each well. Fluorescence was measured with a microplate reader (Flexstation3, Molecular Devices), under the conditions of excitation at 530 nm and emission at 590 nm, 1 hour after the addition of the mixture. Inhibition by each compound was measured as % reduction in signal, compared to the control without an inhibitor (diluted DMSO only). The data were fixed to a four-variable logistic model, and […] values were calculated using the GraphPad Prism program.

IC50 [nM] | Structure (SMILES)
32.2 | COC(=O)c1cc(-c2cccc(S(=O)(=O)NC3CC3)c2)c2nnn(C/C(F)=C/CN)c2c1 [Example 122, methyl (Z)-1-(4-amino-2-fluorobut-2-en-1-yl)-4-(3-(N-cyclopropylsulfamoyl)phenyl)-1H-benzo[d][1,2,3]triazol-6-carboxylate hydrochloride]
92.8 | N#Cc1cc(-c2cncc(Cl)c2)c2ncn(C/C(F)=C/CN)c2c1 [Example 189, (Z)-1-(4-amino-2-fluorobut-2-en-1-yl)-4-(5-chloropyridin-3-yl)-1H-benzo[d]imidazol-6-carbonitrile hydrochloride]
55.6 | COC(=O)c1cc(-c2cccc(S(=O)(=O)N3CCCCC3)c2)c2ncn(C/C(F)=C/CN)c2c1 [Example 33, methyl (Z)-1-(4-amino-2-fluorobut-2-en-1-yl)-4-(3-(piperidin-1-ylsulfonyl)phenyl)-1H-benzo[d]imidazol-6-carboxylate hydrochloride]
18.6 | COC(=O)c1cc(-c2ccc(OC)c(S(=O)(=O)N(C)C)c2)c2nnn(C/C(F)=C/CN)c2c1 [Example 114, methyl (Z)-1-(4-amino-2-fluorobut-2-en-1-yl)-4-(3-(N,N-dimethylsulfamoyl)-4-methoxyphenyl)-1H-benzo[d][1,2,3]triazol-6-carboxylate hydrochloride]
105 | N#Cc1cc(-c2cc(CO)ccc2F)c2ncn(C/C(F)=C/CN)c2c1 [Example 185, (Z)-1-(4-amino-2-fluorobut-2-en-1-yl)-4-(2-fluoro-5-(hydroxymethyl)phenyl)-1H-benzo[d]imidazol-6-carbonitrile hydrochloride]
464 | N#Cc1cc(-c2cccnc2)c2ncn(C/C(F)=C/CN)c2c1 [Example 187, (Z)-1-(4-amino-2-fluorobut-2-en-1-yl)-4-(pyridin-3-yl)-1H-benzo[d]imidazol-6-carbonitrile hydrochloride]
69.6 | CON(C)C(=O)c1cc(-c2cccc(S(=O)(=O)N(C)C)c2)c2nnn(C/C(F)=C/CN)c2c1 [Example 139, (Z)-1-(4-amino-2-fluorobut-2-en-1-yl)-4-(3-(N,N-dimethylsulfamoyl)phenyl)-N-methoxy-N-methyl-1H-benzo[d][1,2,3]triazol-6-carboxamide]
42.9 | COC(=O)c1cc(-c2ccc(OC)c(S(=O)(=O)NC(C)C)c2)c2nnn(C/C(F)=C/CN)c2c1 [Example 121, methyl (Z)-1-(4-amino-2-fluorobut-2-en-1-yl)-4-(3-(N-isopropylsulfamoyl)-4-methoxyphenyl)-1H-benzo[d][1,2,3]triazol-6-carboxylate hydrochloride]
94.2 | COC(=O)c1cc(-c2cc(S(=O)(=O)C(F)(F)F)ccc2C)c2nnn(C/C(F)=C/CN)c2c1 [Example 128, methyl (Z)-1-(4-amino-2-fluorobut-2-en-1-yl)-4-(2-methyl-5-((trifluoromethyl)sulfonyl)phenyl)-1H-benzo[d][1,2,3]triazol-6-carboxylate hydrochloride]
190 | NC/C=C(\F)Cn1nnc2c(-c3cncnc3)cc(C(F)(F)F)cc21 [Example 202, (Z)-3-fluoro-4-(4-(pyrimidin-5-yl)-6-(trifluoromethyl)-1H-benzo[d][1,2,3]triazol-1-yl)but-2-en-1-amine hydrochloride]
419 | CCn1nccc1-c1cc(C(F)(F)F)cc2c1ncn2C/C(F)=C/CN [Example 177, (Z)-4-(4-(1-ethyl-1H-pyrazol-5-yl)-6-(trifluoromethyl)-1H-benzo[d]imidazol-1-yl]-3-fluoro-but-2-en-1-amine hydrochloride]
18.7 | CONC(=O)c1cc(-c2ccc(OC)c(S(=O)(=O)N(C)C)c2)c2nnn(C/C(F)=C/CN)c2c1 [Example 132, (Z)-1-(4-amino-2-fluorobut-2-en-1-yl)-4-(3-(N,N-dimethylsulfamoyl)-4-methoxyphenyl)-N-methoxy-1H-benzo[d][1,2,3]triazol-6-carboxamide hydrochloride]
12.6 | CNS(=O)(=O)c1cccc(-c2cc(C(=O)OC)cc3c2nnn3C/C(F)=C/CN)c1 [Example 123, methyl (Z)-1-(4-amino-2-fluorobut-2-en-1-yl)-4-(3-(N-methylsulfamoyl)phenyl)-1H-benzo[d][1,2,3]triazol-6-carboxylate hydrochloride]
506 | Cn1nc(C(F)(F)F)cc1-c1cc(C(F)(F)F)cc2c1ncn2C/C(F)=C/CN [Example 179, (Z)-3-fluoro-4-(4-[1-methyl-3-(trifluoromethyl)-1H-pyrazol-5-yl]-6-(trifluoromethyl)-1H-benzo[d]imidazol-1-yl)but-2-en-1-amine hydrochloride]
308 | CC(=O)c1ccc(F)c(-c2cc(C(F)(F)F)cc3c2nnn3C/C(F)=C/CN)c1 [Example 197, (Z)-1-(3-(1-(4-amino-2-fluorobut-2-en-1-yl)-6-(trifluoromethyl)-1H-benzo[d][1,2,3]triazol-4-yl)-4-fluorophenyl)ethan-1-one hydrochloride]
70.6 | COC(=O)c1cc(-c2cccc(S(=O)(=O)NCc3ccc(OC)cc3)c2)c2nnn(C/C(F)=C/CN)c2c1 [Example 125, methyl (Z)-1-(4-amino-2-fluorobut-2-en-1-yl)-4-(3-(N-(4-methoxybenzyl)sulfamoyl)phenyl)-1H-benzo[d][1,2,3]triazol-6-carboxylate hydrochloride]
142 | NC/C=C(\F)Cn1nnc2c(-c3cncc(Cl)c3)cc(C(F)(F)F)cc21 [Example 201, (Z)-4-(4-(5-chloropyridin-3-yl)-6-(trifluoromethyl)-1H-benzo[d][1,2,3]triazol-1-yl)-3-fluorobut-2-en-1-amine hydrochloride]
270 | N#Cc1cc(-c2cncc(F)c2)c2nnn(C/C(F)=C/CN)c2c1 [Example 208, (Z)-1-(4-amino-2-fluorobut-2-en-1-yl)-4-(5-fluoropyridin-3-yl)-1H-benzo[d][1,2,3]triazol-6-carbonitrile hydrochloride]
94 | CS(=O)(=O)c1cccc(-c2cccc3c2nnn3C/C(F)=C/CN)c1 [Example 106, (Z)-3-fluoro-4-(4-(3-(methylsulfonyl)phenyl)-1H-benzo[d][1,2,3]triazol-1-yl)but-2-en-1-amine hydrochloride]
54.3 | CCN(CC)S(=O)(=O)c1ccc(OC)c(-c2cc(C(=O)N(C)OC)cc3c2nnn3C/C(F)=C/CN)c1 [Example 138, (Z)-1-(4-amino-2-fluorobut-2-en-1-yl)-4-(5-(N,N-diethylsulfamoyl)-2-methoxyphenyl)-N-m ethoxy-N-methyl-1H-benzo[d][1,2,3]triazol-6-carboxamide hydrochloride]
8 | CNS(=O)(=O)c1ccc(OC)c(-c2cc(C(=O)NOC)cc3c2nnn3C/C(F)=C/CN)c1 [Example 134, (Z)-1-(4-amino-2-fluorobut-2-en-1-yl)-N-methoxy-4-(2-methoxy-5-(N-methylsulfamoyl)phenyl)-1H-benzo[d][1,2,3]triazol-6-carboxamide hydrochloride]
60 | NC/C=C(\F)Cn1nnc2c(-c3cccc(S(=O)(=O)NC4CC4)c3)cccc21 [Example 110, (Z)-3-(1-(4-amino-2-fluorobut-2-en-1-yl)-1H-benzo[d][1,2,3]triazol-4-yl)-N-cyclopropylbenzenesulfonamide hydrochloride]
14.2 | COC(=O)c1cc(-c2cccc(S(=O)(=O)N(C)C)c2)c2nnn(C/C(F)=C/CN)c2c1 [Example 124, methyl (Z)-1-(4-amino-2-fluorobut-2-en-1-yl)-4-(3-(N,N-dimethylsulfamoyl)phenyl)-1H-benzo[d][1,2,3]triazol-6-carboxylate hydrochloride]
86.8 | N#Cc1cc(-c2cncc(Cl)c2)c2nnn(C/C(F)=C/CN)c2c1 [Example 209, (Z)-1-(4-amino-2-fluorobut-2-en-1-yl)-4-(5-chloropyridin-3-yl)-1H-benzo[d][1,2,3]triazol-6-carbonitrile hydrochloride]
